Measurements published in PubChem BioAssay (NCI).
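The compound was tested at five concentrations on cells cultured in 96-well plates, with a 48-hour exposure period. Here, GI50 denotes the concentration required for 50% inhibition of growth. TGI marks complete inhibition of growth.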

What was measured:
Experiment in all cases: NCI-60 cell line screen, 48 h
SNB-75 CNS = tested on: SNB-75 CNS
HOP-62 NSCLC = tested on: HOP-62 NSCLC
SW-620 colon = tested on: SW-620 colon
MALME-3M melanoma = tested on: MALME-3M melanoma
SK-OV-3 ovarian = tested on: SK-OV-3 ovarian
KM12 colon = tested on: KM12 colon
NCI-H522 lung = tested on: NCI-H522 lung
UO-31 renal = tested on: UO-31 renal
MDA-MB-435 = tested on: MDA-MB-435
COLO 205 colon = tested on: COLO 205 colon

| SMILES | GI50 (SNB-75 CNS) [µM] | TGI (SNB-75 CNS) [µM] | GI50 (HOP-62 NSCLC) [µM] | TGI (HOP-62 NSCLC) [µM] | GI50 (SW-620 colon) [µM] | TGI (SW-620 colon) [µM] | GI50 (MALME-3M melanoma) [µM] | TGI (MALME-3M melanoma) [µM] | GI50 (SK-OV-3 ovarian) [µM] | TGI (SK-OV-3 ovarian) [µM] | GI50 (KM12 colon) [µM] | TGI (KM12 colon) [µM] | GI50 (NCI-H522 lung) [µM] | TGI (NCI-H522 lung) [µM] | GI50 (UO-31 renal) [µM] | TGI (UO-31 renal) [µM] | GI50 (MDA-MB-435) [µM] | TGI (MDA-MB-435) [µM] | GI50 (COLO 205 colon) [µM] | TGI (COLO 205 colon) [µM] |
| --- | --- | --- | --- | --- | --- | --- | --- | --- | --- | --- | --- | --- | --- | --- | --- | --- | --- | --- | --- | --- |
| Cc1nc2cccc(NCc3ccc(C(=O)NO)cc3)c2c(=O)n1-c1ccccc1 | 1.97 | 5.46 | 1.65 | 4.47 | 1.55 | 5.99 | 1.48 | 3.26 | 2.71 | 8.28 | 1.8 | 3.59 | 1.29 | 2.61 | 1.37 | 3.15 | 1.63 | 3.28 | 1.87 | 3.97 |
| CN(C)CCCNC(=O)c1cc(NC(=O)c2cc(NC(=O)c3cc(NC(=O)CCc4c[nH]c5ccccc45)cn3C)cn2C)cn1C | > 100 | > 100 | > 100 | > 100 | > 100 | > 100 | 30.4 | 88.7 | > 100 | > 100 | > 100 | > 100 | > 100 | > 100 | > 100 | > 100 | > 100 | > 100 | > 100 | > 100 |
| S=C(Nc1ccc(Cl)cc1)Nc1ccc(-c2nc3ccccc3[nH]2)cc1 | 15.7 | > 55 | 15 | 30 | 22.4 | > 58.8 | 7.19 | 32.1 | 17.7 | > 100 | 4.45 | > 62 | 4.63 | 13.3 | 5.86 | > 29.4 | 9.11 | 26.6 | 2.65 | > 35.8 |
| COc1cc(/C=C/C(=O)c2ccc(Cl)cc2)ccc1OS(=O)(=O)c1ccc(C)cc1 | 31.6 | > 100 | 30 | 92 | 2.21 | 6.01 | 13.1 | 33.6 | 30.1 | > 100 | 3.63 | 13.8 | 2.93 | 12.2 | 6.95 | 21.1 | 2.74 | 8.56 | 12.3 | 39.7 |
| O=C(Oc1ccc(CCl)cc1)c1ccccc1 | 0.172 | 0.356 | 0.17 | 0.333 | 0.103 | 0.247 | 0.127 | 0.274 | 0.386 | 1.42 | 0.166 | 0.323 | 0.154 | 0.316 | 0.173 | 0.319 | 0.155 | 0.299 | 0.136 | 0.307 |
| O=C(CCCn1ccnc1[N+](=O)[O-])NCCn1ccnc1 | – | > 100 | – | > 100 | – | > 100 | – | > 100 | – | > 100 | – | > 100 | – | > 100 | – | > 100 | – | > 100 | – | > 100 |
| O=C(C(Br)Br)C(Br)C(Br)c1ccccc1 (stereo not given) | 19.9 | 53.4 | 2.74 | 8.1 | 2.03 | 4.19 | 3.11 | 8.65 | 17.2 | 31.1 | 14.2 | 28.5 | 1.81 | 3.48 | 2.5 | 7.86 | 2.67 | 8.21 | 1.65 | 3.59 |
| CCN(CC)CCCCCCCNc1c2ccc(Cl)cc2nc2ccc(OC)cc12 | 1.29 | 2.62 | 0.943 | 2.54 | 0.376 | 1.64 | 2.05 | 4.1 | 1.41 | 3.58 | 0.649 | 2.17 | 1.2 | 2.83 | 0.545 | 2.03 | 1.43 | 3.16 | 1.09 | 2.48 |
| COc1c(O)ccc2c1CN1CCc3cc4c(cc3C1C2)OCO4 (stereo not given) | – | 65.3 | – | > 100 | – | > 100 | – | > 100 | – | > 100 | – | > 100 | – | 36.1 | – | > 100 | – | > 60.9 | – | > 100 |
| O=C1C(=O)c2ccccc2C(O)=C1C(CCc1ccccc1)C1=C(O)c2ccccc2C(=O)C1=O | – | > 100 | – | > 100 | – | > 100 | – | 29.7 | – | > 100 | – | > 100 | – | > 100 | – | > 100 | – | 28.4 | – | > 100 |
| C/C=C(\C)C(=O)O[C@H]1C=CC(=O)O[C@H]1CNC(=O)[C@H](C)O | 22.3 | 48.8 | 23.9 | 54 | 14.6 | 28.6 | 18.5 | 35.1 | 52.1 | > 100 | 17 | 32 | 11.6 | 31 | 16.9 | 33.4 | 20.1 | 44.7 | 12.6 | 29.3 |
| CCOC(=O)Oc1c(OC)cc(C(=O)O[C@@H]2C[C@@H]3CN4CCc5c([nH]c6cc(OC)ccc56)[C@H]4C[C@@H]3[C@H](C(=O)OC)[C@H]2OC)cc1OC | 6.64 | 24.5 | 11.7 | 25.2 | 3.67 | 19.4 | 6.74 | 27.1 | 14.3 | 27.4 | 4.7 | 17.7 | 5.18 | 18.7 | 5.18 | > 100 | 8.33 | 23.9 | 10.3 | 24.1 |
